From PMC9268013, “Design, Synthesis, and Biological Evaluation of N14-Amino Acid-Substituted Tetrandrine Derivatives as Potential Antitumor Agents against Human Colorectal Cancer” (Molecules, 2022)

What was measured:
Format in all cases: cell-based
[1] = system: human liver cancer cells (HepG2); experiment: MTT antiproliferative assay, HepG2
Description: (§1) Human lung cancer cell (A549,), human umbilical vein endothelial cells (HUVECs,), human colon cancer cell lines (HCT-15), human breast cancer cells (MCF-7), human liver cancer cells (HepG2), human pancreatic cancer cells (BxPC-3), and human hepatic cell line (L-02) were obtained from the Sichuan University. A549, HUVECs, and L-02 were cultured in DMEM medium (high glucose, HyClone, GE Healthcare, Sydney, Australia). Human colon cancer cell lines HCT-15, human pancreatic cancer cells […] BxPC-3 were cultured in RPMI-1640. Human breast cancer cells MCF-7 and human liver cancer cells HepG2 were cultured in MEM medium. All the mediums, including 10% fetal bovine serum (FBS, HyClone, GE Healthcare, Sydney, Australia) and 1% ampicillin/streptomycin, were used to culture the above cells at 37 °C in a humidified atmosphere (5% CO2 and 95% air).
(§2) The antiproliferative activity of the title compounds was determined using the MTT (3-(4,5-dimethylthiazol-2-yl)-2,5-diphenyltetrazolium bromide, Sigma-Aldrich, Saint Louis, MO, USA) assay on different cells. Cells lines were seeded into 96-well plates at a density of 2000 to 6000 cells/well. DMSO was used to dissolve the test compounds, and TET was used as a positive control. After 24 h, the test compounds were added at different concentrations (0.625, 1.25, 2.5, 5, 10, and 20 μM) and incubated at 37 °C for 72 h. MTT was added to each well at a final concentration of 0.5 mg/mL and incubated at 37 °C for 4 h. Then, 150 μL of DMSO was added to each well to dissolve the formazan crystals. The absorbance was measured at 570 nm by a microplate reader (ELX800UV, Bio-Tek, Windoski, VT, USA). All measurements were repeated at least three times under the same conditions. Graphpad Prism 8.0 was used to calculate the IC50 values.

[2] = system: human colon cancer cells (HCT-15); experiment: MTT antiproliferative assay, HCT-15
Description: as §1, §2

[3] = system: human lung cancer cells (A549); experiment: MTT antiproliferative assay, A549
Description: as §1, §2

[4] = system: human pancreatic cancer cells (BxPC-3); experiment: MTT antiproliferative assay, BxPC-3
Description: as §1, §2

[5] = system: human normal hepatocyte cells (L-02); experiment: MTT toxicity assay, normal hepatocytes L-02; details: 72 h, normal hepatocyte L-02 (toxicity), read-out: Antiproliferative Activity (IC50/μM) L-02
Description: as §1, §2

IC50 ([1]; 72 h): 1.05 ± 0.03 µM
IC50 ([1]; Homo sapiens, HepG2, 72 h): < 1.5 µM
IC50 ([2]; Homo sapiens, MTT, 72 h, HCT-15): 0.57 ± 0.03 µM
IC50 ([3]; 72 h): 1.19 ± 0.01 µM
IC50 ([3]; Homo sapiens, A549, 72 h): < 1.5 µM
IC50 ([4]; 72 h): 1.12 ± 0.1 µM
IC50 ([4]; Homo sapiens, BXPC-3, 72 h): < 1.5 µM
SMILES: COc1cc(NC(=O)[C@@H]2CCCN2)c2cc1Oc1ccc(cc1)C[C@H]1c3cc(c(OC)cc3CCN1C)Oc1c(OC)c(OC)cc3c1[C@H](C2)N(C)CC3 [Compound 16, 14-N-(L-proline)-tetrandrine]
Improvement of antiproliferative activity compared with TET ([2]; HCT-15 cells, vs TET (IC50 = 6.12 μM)): higher than 10 fold
IC50 [5]: > 20 µM
